This note sets out measurements from US11110080B2, “Small molecule inhibitors of bacterial efflux pumps and methods of using same” (The Regents of the University of Colorado, a body Corporate, priority 2017, dated 2021).

Entries after “also recorded” stand apart in the source; their conditions may differ.

What all share (assay type): cell-based, Salmonella enterica serovar Typhimurium
In experiment [1] the test system is S.Tm efflux pumps. Put plainly: Nile Red efflux assay. The source says:
Because Hoechst and other dyes commonly used to assess efflux bind cellular components, direct measurement of efflux is not possible using these methods; instead, the Hoechst assay measures dye accumulation, the net result of entry and efflux. Further, the slow off-rate of Hoechst entails that efflux pumps have no effect on dye already bound to DNA. As a result, compounds which increase Hoechst accumulation may actually enhance dye entry by altering porins or disrupting the membrane. To more specifically measure efflux pump activity, a second technique was employed using the dye Nile Red, a lipophilic membrane-partitioning dye which fluoresces in nonpolar environments. Because Nile Red is not known to bind cellular components, to directly observe efflux cells were preloaded with the dye in the absence of glucose to reduce efflux pump activity (FIG. 7A). Upon addition of glucose, bacteria rapidly effluxed Nile Red and fluorescence returned to baseline levels (FIG. 7B, top panel). […] The initial measured fluorescence was lower for DMSO-treated cells (upper dotted line) than for PAβN-treated cells due to glucose-independent efflux during sample preparation (FIG. 8A). Next, it was determined whether efflux pump activity is restored after removal of PAβN. Bacteria were incubated with compound for 15 minutes, pelleted and resuspended in buffer lacking compound, and then stimulated with glucose (FIGS. 7C, 7E).
Nile Red assays were adapted from an established protocol. Briefly, overnight Salmonella cultures were grown in Mueller-Hinton cation-adjusted broth (Sigma), washed, and resuspended at an OD600 of 2.0. Cells were incubated in 10 μM Nile Red for 3 hours at 37° C. with aeration, then moved to room temperature for 1 hour. After pelleting at 2000× g, dye-loaded cells were aliquoted and combined with compound at the indicated concentrations. Two hundred microliters was loaded into 96-well black walled plates (Greiner) and read using a Varioskan Flash Multimode Reader with 540 nm excitation and 625 nm emission filters. We observed that during loading into plates (˜20 minutes), bacteria were able to efflux Nile Red even in the absence of glucose (FIG. 8A). To activate efflux, glucose was added to a final concentration of 2 mM. In some experiments, bacteria were treated with drug for 15 minutes, pelleted at 16,000×g, resuspended in fresh buffer, and stimulated with 2 mM glucose. All wash and incubation steps were performed in PBS with 1 mM MgCl2; incubations were performed in glass tubes to reduce adhesion of Nile Red.

Experiment [2] concerns S.Tm wild-type SL1344, MAR1 and S10801. In words: microbe, parasite or virus in culture. The settings on record: MAR1 and S10801. The procedure:
Increased expression or function of efflux pumps often contributes to clinical multidrug resistance. Therefore, whether the EPMs re-sensitize two multidrug resistant strains of S.Tm to tetracycline was tested. Tetracycline is an antibiotic exported by AcrAB. The MAR1 strain is derived from wild-type SL1344 was selected by exposure to tetracycline, and has increased expression of the AcrAB efflux pump. S10801 is an MDR strain isolated from the mesenteric lymph node of a septic calf and is resistant to tetracycline, ampicillin, chloramphenicol, nalidixic acid, and triple sulfa. The basis of multi-drug resistance in this strain is unknown.
(§1) Overnight Salmonella cultures were washed 3 times in PBS and diluted to an OD of 0.01 in Mueller Hinton Broth in 96-well flat bottom plates. Compound was added using a pin tool (CyBio) or manually, yielding a final concentration of no more than 1% DMSO. Plates were grown at 37° C. shaking and OD600 was monitored using a BioTek Eon incubator shaker microplate absorbance reader. For experiments in defined media, bacteria were grown in M9 minimal media supplemented with 100 mM Tris pH 7.4, 0.35% glycerol, 0.002% histidine, 10 mM MgCl2, and 0.1% casamino acids. Where indicated, media was supplemented with 5 μg/ml polymyxin B or 0.2 mM H2O2. For experiments with LL-37, bacteria were grown in M9 minimal media supplemented with 0.4% dextrose, 0.004% histidine, 1 mM MgSO4, and 5 μg/ml LL-37. For checkerboard assays, MIC was defined as the concentration at which no growth was visually observed.

The subject of experiment [3] is S.Tm efflux pumps. Put plainly: Nile Red efflux assay. The settings on record: 20 minutes incubation in 75 μM.
Experiment [4] relates to extracellular S.Tm grown in MHB broth. Put plainly: Broth activity assay (growth / MIC in Mueller Hinton Broth). The conditions noted are these: Salmonella enterica, three Salmonella strains SL1344, MAR1, S10801. As for the experimental part:
as §1

Another experiment deals with S.Tm. Put plainly: Swimming assay in soft agar (proton motive force). The conditions noted are these: 50 mM, 10 μl on disk (500×, 125×, ~62.5× the MIC for EPM30, EPM35, EPM43). The procedure:
One way to inhibit efflux pumps is to disrupt the proton motive force, which is required for transport by some EPs. […] Bacteria were injected into the center of 0.25% agar plates, and 10 μl of compound was added to paper disks on the periphery. […] Also ampicillin and rifampicin were tested. We plotted the halo radius versus the concentration as the fold above the MIC (FIG. 9G). […] Next, it was determined whether PAβN inhibited swimming; PAβN is thought to disrupt membranes over long incubations. […] Finally, the EPMs at […] were tested (FIGS. 9D-F).
Saturated overnight cultures were diluted to an OD600 of 0.01 in LB and 1 μL was injected into the center of low agar (0.25%) LB plates. Ten microliters of the indicated compounds were added to sterilized Whatman paper disks (diameter 0.7 cm) placed equidistant from the plate center.

For experiment [5], the system named is S.Tm efflux pumps. Put plainly: Hoechst 33342 accumulation assay. As for the experimental part:
Efflux pumps (EPs) represent a key pathogen virulence strategy to protect against host antimicrobials as well as therapeutic antibiotics. […] To uncover putative EPMs within our collection of hits, 58 repurchased compounds were screened in a Hoechst accumulation assay. Bacteria were incubated with Hoechst 33342, a dye which fluoresces when bound to DNA.
Hoechst accumulation assays were performed essentially as described in the literature. Briefly, overnight Salmonella cultures were washed 3 times in PBS and diluted to an OD of 0.1 in PBS with 2.5 μM Hoechst 33342 in the presence of the indicated concentrations of compounds. Fluorescence was monitored on a Biotek Synergy 2 with a 360/40 nm excitation filter and 460/40 nm emission filter. The maximum Hoechst fluorescence over 60 minutes of incubation was normalized to the signal from the equivalent number of heat-killed bacteria, after subtraction of autofluroescent signal determined from compound incubated in the absence of bacteria. Curve fitting to determine EC50s was performed using GraphPad Prism.

As a reminder, the MIC is the lowest concentration that inhibits growth of the organism.

Turning to `CC(C)c1nc(NC(=N)N)sc1Br` [EPM30], the “glucose-activated efflux of Nile Red” value in the experiment on S.Tm efflux pumps [1] (75 μM) is “fully inhibited efflux”. Besides, the “Nile Red efflux after washout of compound” value with S.Tm efflux pumps [1] (15 minutes with compound, washed, then glucose) is “partially restored efflux; also recorded: partially restored Nile Red export”. For the same compound, in the experiment on S.Tm efflux pumps [1] (no glucose), the “Nile Red fluorescence in the absence of glucose (basal loss)” value is listed as “immediate reduction in fluorescence”. Moreover, the “sensitivity of MDR S.Tm to tetracycline” value in experiment [2] is “not”. Moreover, in the experiment with S.Tm efflux pumps [3], the “bacterial integrity and viability” value was “remain intact and viable”. Besides, the MIC in experiment [4] turned out to be 100 µM. Moreover, the “halo in swimming assay” value in the experiment on S.Tm is “formed a halo”. For the same compound, the “Hoechst assay EC50 relative to PAβN” value with S.Tm efflux pumps [5] is reported as “lower than that of PAβN”. For the same compound, in the experiment on S.Tm efflux pumps [5] (wild-type S.Tm, 60 minutes), the “Hoechst accumulation / fluorescence” value is listed as “increased S.Tm accumulation of Hoechst in a dose-dependent manner; also recorded: fluorescence comparable to that of PAβN”.
